Results reported in patent publication US20070117776A1, “Low Dose Therapy Of DNA Methylation Inhibitors” (priority 2005, published 2007).

Key:
[1] = Maximum degradation in the infusion estimated for selected infusion schedules; type: physicochemical; conditions: 0.1-1 mg/mL; for Average degradation rate: estimate assuming linearity
Procedure: Table 3 summarizes the maximum degradation estimated using a series of infusion schedules (S1 through S7 as denoted in the table) selected to establish degradation limits and acceptable shelf life of the diluted solution. The average degradation rate used for calculations is based on the assumption that degradation in solutions is linear and the slope between the initial and the terminal time point is considered to be worst case. If the solution is prepared appropriately and used immediately, degradation would be minimal. It is recommended that a diluted infusion should not be stored longer than seven hours in a refrigerator for a three hour infusion or longer than 10 hours in a refrigerator for a two hour infusion in order to stay within the 10% maximum limit allowed for degradation.

[2] = tested on: intermediate and high-risk MDS and CMML; assay: Randomized low dose decitabine schedules in patients with hematological disorders; type: in vivo, human
Procedure: Patients with intermediate and high-risk MDS and CMML were randomized to one of three decitabine schedules: (1) 20 mg/m^2 infused intravenously over 1 hour, once daily, for five days; (2) 10 mg/m^2, infused intravenously over one hour, once daily, for ten days; (3) 10 mg/m^2, injected subcutaneously twice a day, for five days.
Decitabine was supplied as a lyophilized powder, 50 mg in 20 mL glass vials, for reconstitution with 10 mL sterile water (Supergen, Inc., Dublin Calif., through Pharmachemie B.V., Haarlem, The Netherlands). The reconstituted stock solution contained 5 mg/mL decitabine, 6.8 mg KH2PO4, and approximately 1.1 mg/mL NaOH. The reconstituted solution was further diluted for intravenous infusion or subcutaneous injection with pharmaceutically acceptable cold infusion fluids (physiological saline, glucose-saline, lactated Ringer's solution). The time delay between preparation of the infusion/injection solution was kept as short as practicable, with refrigerated storage prior to administration not to exceed 4-5 hours.
Patients received one course of treatment (as defined above) every 28 days. […] Patients were allowed 40,000 units of erythropoietin weekly for anemia, or GCSF if needed.
The age of 92 treated patients ranged from 31-90 years (median: 65, with 66% of patients being older than 60); according to IPSS prognostic scores, 25% of patients were classified as intermediate-1, 38% as intermediate-2, 19% as high risk, and 17% as having chronic myelomonocytic leukemia (CMML). […] Twenty-seven patients had had prior erythropoietin; 17 had had prior GCSF, and 22 had had other prior therapies.

[3] = tested on: cytidine deaminases; conditions: enzymatic degradation by cytidine deaminases, particularly in the small intestine; cited from earlier work
[4] = all three schedules, 92 treated patients

Average degradation rate ([1]; @ 4° C.): 0.40 %/hr | Average degradation rate ([1]; @ Room Temperature): 2.44 %/hr | Maximum degradation ([1]; S1 (6 hr stored @4° C. + 3 hr @ RT during infusion)): 9.72 % peak area | Maximum degradation ([1]; S2 (7 hr stored @4° C. + 3 hr @ RT during infusion)): 10.12 % peak area | Maximum degradation ([1]; S3 (7 hr stored @4° C. + 2 hr @ RT during infusion)): 7.68 % peak area | Maximum degradation ([1]; S4 (8 hr stored @4° C. + 3 hr @ RT during infusion)): 10.52 % peak area | Maximum degradation ([1]; S5 (8 hr stored @4° C. + 2 hr @ RT during infusion)): 8.08 % peak area | Maximum degradation ([1]; S6 (9 hr stored @4° C. + 2 hr @ RT during infusion)): 8.48 % peak area | Maximum degradation ([1]; S7 (10 hr stored @4° C. + 2 hr @ RT during infusion)): 8.88 % peak area | myelosuppression ([2]; 10-day IV cohort (10 mg/m^2 over one hour, once daily, ten days) compared with the other schedules): more myelosuppression
Structure (SMILES): Nc1ncn([C@H]2C[C@H](O)[C@@H](CO)O2)c(=O)n1 [Decitabine, 4-amino-1-(2-deoxy-β-D-erythro-pentofuranosyl)-1,3,5-triazin-2(1H)-one]
comparison of schedules ([2]; 5-day IV arm versus the other arms, after 55 patients were randomized): statistically superior | complete remission (patients with CR/patients treated) ([2]; 5-day IV courses: 20 mg/m^2 infused intravenously over 1 hour, once daily, for five days): 24/57 | complete remission (patients with CR/patients treated) ([2]; 5-day subcutaneous courses: 10 mg/m^2 injected subcutaneously twice a day, for five days): 4/14 | complete remission (patients with CR/patients treated) ([2]; 10-day IV courses: 10 mg/m^2 infused intravenously over one hour, once daily, for ten days): 4/17 | CB combined with bone marrow CR [2, 4]: Thirteen | Partial remission (PR) [2, 4]: seven | clinical benefit (CB) [2, 4]: Sixteen | complete remission (CR) [2, 4]: 32 patients | number of treatment courses in patients who achieved CR (median) ([2]; one course every 28 days): 3 | number of treatment courses in patients who achieved CR (range) ([2]; one course every 28 days): one to six | patients who showed a response (overall) ([2]; patients who received at least one course of treatment): 76% | oral bioavailability [3]: reduced oral bioavailability
